These results are taken from ChEMBL document CHEMBL3425442, “Tetrahydroindazoles as Interleukin-2 Inducible T-Cell Kinase Inhibitors. Part II. Second-Generation Analogues with Enhanced Potency, Selectivity, and Pharmacodynamic Modulation in Vivo” (J Med Chem, 2015).

Values after ≈ are worked out from the molar mass of the structure shown. Values joined by “and” are separate entries in the source; they are usually repeats but may differ in a detail not shown here. Identical values can stand only once. Bounds are passed on as bounds.

The subject of one series is Hepatocyte. As to the kind of experiment: Cytotoxicity against hepatocytes (unknown origin).
Series [1] is described as follows: Plasma protein binding in human. In kind it is ADME, cell-free. The conditions noted are these: read-out: PPB (converted).
The nature of the next series: physchem. Particulars: aqueous phosphate buffer, pH 7.4, Kinetic_solubility.
A further series deals with hERG (KCNH2) (Homo sapiens, UniProt Q12809). As to the kind of experiment: Inhibition of human ERG at 10 uM by patch clamp assay relative to control.
Chain of hERG (KCNH2) (Q12809 whole entry): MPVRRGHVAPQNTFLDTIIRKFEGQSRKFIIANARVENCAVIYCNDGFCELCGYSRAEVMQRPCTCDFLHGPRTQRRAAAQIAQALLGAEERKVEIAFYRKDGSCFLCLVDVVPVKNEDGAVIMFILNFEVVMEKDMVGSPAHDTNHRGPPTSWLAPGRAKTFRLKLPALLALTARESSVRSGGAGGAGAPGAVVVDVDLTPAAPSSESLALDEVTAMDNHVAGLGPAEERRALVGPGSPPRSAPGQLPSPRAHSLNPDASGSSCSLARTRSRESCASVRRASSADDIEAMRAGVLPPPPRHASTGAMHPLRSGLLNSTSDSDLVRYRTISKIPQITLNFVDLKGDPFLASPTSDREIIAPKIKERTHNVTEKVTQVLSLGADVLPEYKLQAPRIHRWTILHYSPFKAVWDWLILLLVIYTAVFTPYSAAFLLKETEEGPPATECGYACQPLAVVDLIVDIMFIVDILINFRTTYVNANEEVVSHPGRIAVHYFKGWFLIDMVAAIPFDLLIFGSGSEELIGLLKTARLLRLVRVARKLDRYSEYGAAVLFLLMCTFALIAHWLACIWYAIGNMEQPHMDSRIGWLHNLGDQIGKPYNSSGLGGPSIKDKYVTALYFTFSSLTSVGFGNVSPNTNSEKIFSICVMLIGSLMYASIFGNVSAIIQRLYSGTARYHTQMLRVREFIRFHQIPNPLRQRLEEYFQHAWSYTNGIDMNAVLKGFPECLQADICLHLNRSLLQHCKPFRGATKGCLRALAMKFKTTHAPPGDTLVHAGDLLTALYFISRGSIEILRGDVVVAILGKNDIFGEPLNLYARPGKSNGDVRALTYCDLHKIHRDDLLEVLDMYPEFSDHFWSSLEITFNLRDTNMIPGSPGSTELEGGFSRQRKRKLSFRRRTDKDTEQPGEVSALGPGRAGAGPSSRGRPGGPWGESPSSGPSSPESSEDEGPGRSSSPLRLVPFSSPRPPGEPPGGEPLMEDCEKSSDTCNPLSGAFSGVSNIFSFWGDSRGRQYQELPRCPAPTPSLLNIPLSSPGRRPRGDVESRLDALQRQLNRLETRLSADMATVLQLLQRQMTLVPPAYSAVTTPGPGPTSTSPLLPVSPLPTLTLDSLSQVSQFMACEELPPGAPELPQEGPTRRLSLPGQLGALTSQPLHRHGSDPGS
The nature of series [2]: 1-octanol-phosphate buffer partition coefficient, log D of the compound at pH 7.4 by UPLC/MS/MS analysis.
Series [3] can be described thus: Cytotoxicity against human Jurkat T cells without TCR stimulation assessed as cell viability by ATPlite assay.
The nature of series [4]: Permeability in MDCK cells. It counts as ADME, cell-based, Canis lupus familiaris. The conditions noted are these: dog, read-out: permeability.
Series [5] addresses Tyrosine-protein kinase Lck (Homo sapiens, UniProt P06239). Briefly: Inhibition of LCK (unknown origin).
For series [6], the system named is Mus musculus. As to the kind of experiment: Reduction in serum IL-2 level in C57/Bl6 mouse at 200 mg/kg, ip administered for 1 hr followed by anti-CD3 treatment measured after 1.5 hrs relative to vehicle-treated control. In kind it is functional. The conditions noted are these: route intraperitoneal.
Series [7] deals with Mus musculus. As to the kind of experiment: Reduction in serum IL-13 level in C57/Bl6 mouse at 200 mg/kg, ip administered for 1 hr followed by anti-CD3 treatment measured after 1.5 hrs relative to vehicle-treated control. Also on record: scale not given: the % may be the effect or the level left. In kind it is functional. Particulars: route intraperitoneal.
For series [8], the system named is Mus musculus. As to the kind of experiment: Reduction in serum IL-2 level in C57/Bl6 mouse at 100 mg/kg, ip administered for 1 hr followed by anti-CD3 treatment measured after 1.5 hrs relative to vehicle-treated control. In kind it is functional. Further details: scale not given: the % may be the effect or the level left. The conditions noted are these: route intraperitoneal.

Series [9] is described as follows: Plasma concentration in C57/Bl6 mouse at 200 mg/kg, ip administered for 1 hr followed by anti-CD3 treatment measured at 2.5 hrs. Further details: dose 200 mg/kg, route intraperitoneal. In kind it is ADME, organism-based.
Series [10] has as its system Mus musculus. Briefly: Reduction in serum IL-13 level in C57/Bl6 mouse at 100 mg/kg, ip administered for 1 hr followed by anti-CD3 treatment measured after 1.5 hrs relative to vehicle-treated control. The conditions noted are these: route intraperitoneal. In kind it is functional. Also on record: scale not given: the % may be the effect or the level left.
Series [11] deals with Mus musculus. Briefly: Reduction in serum IL-2 level in ip dosed C57/Bl6 mouse administered for 1 hr followed by anti-CD3 treatment measured after 1.5 hrs. In kind it is functional, organism-based.
Series [12] has as its system Mus musculus. As to the kind of experiment: Reduction in serum IL-13 level in C57/Bl6 mouse at 30 mg/kg, ip administered for 1 hr followed by anti-CD3 treatment measured after 1.5 hrs relative to vehicle-treated control. In kind it is functional. Also on record: scale not given: the % may be the effect or the level left. The conditions noted are these: route intraperitoneal.

Series [13] deals with Mus musculus. As to the kind of experiment: Reduction in serum IL-2 level in C57/Bl6 mouse at 30 mg/kg, ip administered for 1 hr followed by anti-CD3 treatment measured after 1.5 hrs relative to vehicle-treated control. Further details: scale not given: the % may be the effect or the level left. The conditions noted are these: route intraperitoneal. In kind it is functional.

Series [14] is filed under the species Homo sapiens. As to the kind of experiment: Binding affinity to L-type calcium channel verapamil binding site (unknown origin) assessed as protein-compound complex at 10 uM relative to control.
Series [15] addresses D(2) dopamine receptor (Homo sapiens) (UniProt P14416). Briefly: Binding affinity to human dopamine D2S receptor assessed as protein-compound complex at 10 uM relative to control.
The target in series [16] is Sodium-dependent serotonin transporter (Homo sapiens) (UniProt P31645). Briefly: Binding affinity to human 5-HT transporter assessed as protein-compound complex at 10 uM relative to control.
Chain of Sodium-dependent serotonin transporter (Homo sapiens) (P31645 whole entry, looked up): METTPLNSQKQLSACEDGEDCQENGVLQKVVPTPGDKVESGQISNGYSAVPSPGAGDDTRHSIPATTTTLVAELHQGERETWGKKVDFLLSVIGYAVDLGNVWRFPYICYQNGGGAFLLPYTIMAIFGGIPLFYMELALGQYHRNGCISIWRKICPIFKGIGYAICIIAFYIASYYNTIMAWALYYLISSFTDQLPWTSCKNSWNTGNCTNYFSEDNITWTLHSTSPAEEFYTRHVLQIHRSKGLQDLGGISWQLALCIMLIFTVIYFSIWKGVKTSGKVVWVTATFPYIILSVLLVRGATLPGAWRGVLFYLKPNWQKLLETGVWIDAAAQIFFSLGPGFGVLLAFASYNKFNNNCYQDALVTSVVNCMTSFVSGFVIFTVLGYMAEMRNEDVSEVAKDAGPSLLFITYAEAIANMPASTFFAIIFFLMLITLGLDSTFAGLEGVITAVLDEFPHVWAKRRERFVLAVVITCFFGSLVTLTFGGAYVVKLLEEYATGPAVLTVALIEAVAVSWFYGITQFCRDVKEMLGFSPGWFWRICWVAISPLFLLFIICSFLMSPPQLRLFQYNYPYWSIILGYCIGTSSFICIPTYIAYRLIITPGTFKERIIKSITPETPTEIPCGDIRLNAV
The target in series [17] is D(1A) dopamine receptor (Homo sapiens) (UniProt P21728). As to the kind of experiment: Binding affinity to human dopamine D1 receptor assessed as protein-compound complex at 10 uM relative to control.
Chain of D(1A) dopamine receptor (Homo sapiens) (P21728 whole entry): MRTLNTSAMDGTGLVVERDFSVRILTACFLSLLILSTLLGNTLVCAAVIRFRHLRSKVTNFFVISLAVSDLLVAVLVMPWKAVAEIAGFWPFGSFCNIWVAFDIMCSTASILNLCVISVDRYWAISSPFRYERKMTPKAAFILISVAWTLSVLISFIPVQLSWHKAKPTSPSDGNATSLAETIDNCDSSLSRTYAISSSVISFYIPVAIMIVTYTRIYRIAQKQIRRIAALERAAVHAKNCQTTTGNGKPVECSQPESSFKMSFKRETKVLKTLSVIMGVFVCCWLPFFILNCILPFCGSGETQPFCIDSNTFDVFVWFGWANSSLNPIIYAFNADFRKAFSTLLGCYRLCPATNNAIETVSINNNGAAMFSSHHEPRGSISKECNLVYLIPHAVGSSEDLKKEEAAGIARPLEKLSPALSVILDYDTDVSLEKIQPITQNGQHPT
Series [18] deals with 5-hydroxytryptamine receptor 2A (Homo sapiens) (UniProt P28223). Briefly: Binding affinity to human 5HT-2A receptor assessed as protein-compound complex at 10 uM relative to control.
Chain of 5-hydroxytryptamine receptor 2A (Homo sapiens) (P28223 whole entry): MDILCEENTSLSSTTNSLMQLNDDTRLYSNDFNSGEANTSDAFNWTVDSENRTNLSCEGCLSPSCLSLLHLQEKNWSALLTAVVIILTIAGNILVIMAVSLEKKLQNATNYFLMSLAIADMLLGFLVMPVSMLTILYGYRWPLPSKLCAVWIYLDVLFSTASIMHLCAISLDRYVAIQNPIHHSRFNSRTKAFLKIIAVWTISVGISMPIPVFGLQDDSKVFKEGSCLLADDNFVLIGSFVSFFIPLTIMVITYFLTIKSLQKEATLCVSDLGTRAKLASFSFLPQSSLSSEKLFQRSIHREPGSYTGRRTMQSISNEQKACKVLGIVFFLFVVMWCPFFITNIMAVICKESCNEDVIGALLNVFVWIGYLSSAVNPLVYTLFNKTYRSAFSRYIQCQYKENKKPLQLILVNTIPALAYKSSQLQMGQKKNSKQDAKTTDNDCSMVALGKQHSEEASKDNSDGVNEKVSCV
The species entered for series [19] is Homo sapiens. As to the kind of experiment: Selectivity ratio of Ki for LCK (unknown origin) to Ki for GST-tagged recombinant full length human ITK.

Chain of Tyrosine-protein kinase Lck (P06239 whole entry): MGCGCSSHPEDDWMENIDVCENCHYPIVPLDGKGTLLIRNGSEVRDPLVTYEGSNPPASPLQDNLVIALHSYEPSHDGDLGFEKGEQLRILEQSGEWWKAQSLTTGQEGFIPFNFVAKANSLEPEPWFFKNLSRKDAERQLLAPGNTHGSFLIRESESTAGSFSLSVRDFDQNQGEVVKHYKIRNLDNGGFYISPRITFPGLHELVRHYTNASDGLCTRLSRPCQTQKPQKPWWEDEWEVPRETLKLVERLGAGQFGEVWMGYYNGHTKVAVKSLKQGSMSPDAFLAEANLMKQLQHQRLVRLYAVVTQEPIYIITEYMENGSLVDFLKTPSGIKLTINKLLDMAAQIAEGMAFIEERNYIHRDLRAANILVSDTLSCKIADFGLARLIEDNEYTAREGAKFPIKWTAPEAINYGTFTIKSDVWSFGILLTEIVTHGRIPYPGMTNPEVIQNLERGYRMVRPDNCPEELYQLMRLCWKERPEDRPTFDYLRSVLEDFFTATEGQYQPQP
Chain of D(2) dopamine receptor (Homo sapiens) (P14416 whole entry): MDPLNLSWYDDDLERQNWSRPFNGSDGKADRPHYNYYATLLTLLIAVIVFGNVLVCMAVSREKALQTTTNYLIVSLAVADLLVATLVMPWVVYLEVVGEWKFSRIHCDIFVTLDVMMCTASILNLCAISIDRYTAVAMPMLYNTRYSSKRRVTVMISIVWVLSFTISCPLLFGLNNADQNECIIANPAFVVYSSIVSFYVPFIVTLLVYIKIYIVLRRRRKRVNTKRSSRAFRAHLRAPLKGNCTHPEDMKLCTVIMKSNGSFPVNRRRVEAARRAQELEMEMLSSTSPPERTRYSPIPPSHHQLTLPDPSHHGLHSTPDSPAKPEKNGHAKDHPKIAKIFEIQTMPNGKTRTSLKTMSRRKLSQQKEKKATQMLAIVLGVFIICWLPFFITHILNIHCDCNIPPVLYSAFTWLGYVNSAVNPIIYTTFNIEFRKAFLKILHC
Description for physchem: Kinetic solubility of the compound in aqueous phosphate buffer at pH 7.4 after 24 hrs by HPLC/CLND method

As for `C[C@@]12Cc3[nH]nc(C(=O)Nc4cnn([C@H](c5ccccc5)[C@H]5CCCCS5(=O)=O)c4)c3C[C@@H]1C2(F)F`, the IC50 was over 100 µM with Hepatocyte and 12 µM in [3] (Homo sapiens, Jurkat). For the same compound, the fraction unbound in series [1] was 0.03. The compound also gave a solubility (kinetic) at 24 h in the series “physchem” of 3.9 µM (≈ 2.01 µg/mL). This compound registered an inhibition at 10 µM on hERG (KCNH2) of 6.8%. In series [2], this compound had a logD of 2.8. Besides, the Papp in series [4] is 1.5 ×10⁻⁶ cm/s.
Compound `CC12Cc3[nH]nc(C(=O)Nc4cnn(Cc5ccccc5)c4)c3CC1C2` (stereo unspecified) yielded a Ki in series [5] of 1.4 µM.
Regarding `CC1(C)CCc2c(C(=O)Nc3cnn([C@H](c4ccccc4)C4CCS(=O)(=O)CC4)c3)n[nH]c2C1`, the solubility (kinetic) at 24 h in “physchem” worked out at 4.3 µM (≈ 2.07 µg/mL). Besides, in series [3] (Homo sapiens, Jurkat), the concentration for half-maximal inhibition (IC50) was determined as 29 µM.
As for `CC1(C)CCc2c(C(=O)Nc3cnn([C@H](c4ccccc4)C4CC[S+]([O-])CC4)c3)n[nH]c2C1` (stereo partly specified), the “%max” value in the series on Mus musculus [6] was determined as 98%. In addition, the Activity in the series with Mus musculus [7] was 100%; with Mus musculus [8] it was 90%; in the series on Mus musculus [10] it was 95%; in the series on Mus musculus [11], “Dose-dependent effect”; in the series on Mus musculus [12] it was 62%; in the series with Mus musculus [13], 55%. In addition, the half-inhibitory concentration (IC50) in the series on Hepatocyte is 83 µM; in series [3] (Homo sapiens, Jurkat), 20 µM; in series [3] (jurkat), 30 µM. Moreover, the fraction unbound in [1] is 0.06. For the same compound, in series [9], the concentration at 2.5 h came out at 80 µM. For the same compound, the kinetic solubility at 24 h in the series “physchem” is 45 µM (≈ 21 µg/mL). The compound further showed an inhibition at 10 µM against hERG (KCNH2) of 3.6%. In addition, in [2], the logD came to 3.6. Further, the Papp in [4] turned out to be 1.9 ×10⁻⁶ cm/s.
As for `CN(C)CC[C@@H](c1ccccc1)n1cc(NC(=O)c2n[nH]c3c2CCC(C)(C)C3)cn1`, the Activity in the series filed under Homo sapiens [14] stood at 88%; in series [15], 96%; in series [16], 102%; in series [17], 96%; in [18], 96%. The 50% inhibitory concentration (IC50) came out at 6.2 µM with Hepatocyte and 4.7 µM in series [3] (Homo sapiens, Jurkat). In series [5], this compound gave a Ki of 0.34 µM. Further, the inhibition at 10 µM on hERG (KCNH2) came to 88%.
As to `CC1(C)CCc2c(C(=O)Nc3cnn(Cc4ccccc4)c3)n[nH]c2C1`, the affinity in [5] corresponds to a Ki of 1.8 µM.
In the case of `CC1(C)CCc2c(C(=O)Nc3cnn([C@H](c4ccccc4)C4CCS(=O)(=O)C4)c3)n[nH]c2C1` (stereo partly specified), the half-maximal inhibitory concentration (IC50) in series [3] (Homo sapiens, Jurkat) was 27 µM; in series [3] (jurkat) it was over 50 µM.
`CC1(C)CCc2c(C(=O)Nc3cnn([C@@H](CS(C)(=O)=O)c4ccccc4)c3)n[nH]c2C1` yielded a Ki in [5] of over 2.5 µM. The solubility (kinetic) at 24 h in “physchem” turned out to be 4.5 µM (≈ 1.99 µg/mL). The concentration for half-maximal inhibition (IC50) in [3] (Homo sapiens, Jurkat) is 42 µM.
`CC1(C)CCc2c(C(=O)Nc3cnn([C@H](c4ccccc4)C4CCCS(=O)(=O)C4)c3)n[nH]c2C1` (stereo partly specified): the kinetic solubility at 24 h in the series “physchem” is 11 µM (≈ 5.3 µg/mL). Moreover, in series [3] (jurkat), the 50% inhibitory concentration (IC50) is 44 µM and 20 µM.
In turn, `CC1(C)CCc2c(C(=O)Nc3cnn([C@@H](CCS(C)(=O)=O)c4ccccc4)c3)n[nH]c2C1` came in with an inhibition constant Ki in [5] of 1.8 µM. Further, in the series listed under Homo sapiens [19], the Ratio Ki was found to be 290. In addition, the IC50 in series [3] (Homo sapiens, Jurkat) turned out to be 57 µM.
For the compound `CC1(C)CCc2c(C(=O)Nc3cnn([C@H](c4ccccc4)C4CCCCS4(=O)=O)c3)n[nH]c2C1` (stereo partly specified), in “physchem”, the kinetic solubility at 24 h was 10 µM (≈ 4.82 µg/mL). The IC50 in [3] (Homo sapiens, Jurkat) was over 50 µM; in series [3] (jurkat), 33 µM.
As to `C[C@@]12Cc3[nH]nc(C(=O)Nc4cnn([C@H](c5ccccc5)C5CCS(=O)(=O)CC5)c4)c3C[C@@H]1C2`, the IC50 with Hepatocyte was over 100 µM; in series [3] (Homo sapiens, Jurkat) it was 29 µM. Moreover, the fraction unbound in series [1] is 0.03. In the series “physchem”, this compound gave a kinetic solubility at 24 h of 6.5 µM (≈ 3.12 µg/mL). At hERG (KCNH2), this compound came in with an inhibition at 10 µM of 34%. Also, the logD in series [2] worked out at 3.5. For the same compound, in series [4], the Papp was found to be 4.4 ×10⁻⁶ cm/s.
